Columns and labels:
[1] = system: MDA-MB-231 human breast cancer tumors; assay: In vivo kinetic analysis: tumor/normal tissue NIR signal ratio (TBR); design: species or system athymic mice
Description: Since fluorescent imaging techniques rely on the concentration of each contrast agent, the optimum dose range for ICG-p28 in mice with MDA-MB-231 human breast cancer tumors was determined with the PDE unit. Each mouse was injected i.v. with ICG-p28 or ICG alone at 0.2-1.0 mg/kg (˜50 to 250 nM). The mice were imaged at various time points (6-72 hr), and the ratio of the NIR signal intensity of the tumor tissue and normal tissue (thigh) was calculated.
ICG-p28 or ICG alone was injected intravenously (i.v.) (tail vein) at 0.2, 0.5, or 1 mg/kg-b.w. Animals were imaged using an Odyssey scanner (LI-COR Biosciences) at 6-72 hr post i.v. administration. The tumor background ratio (TBR) was determined using ImageJ software (National Institutes of Health), where a region of interest (ROI) was drawn over the whole tumor and a background ROI was drawn over adjacent tissue. An ROI was manually generated around each tumor (800 nm channel).

[2] = system: MDA-MB-231-iRFP tumors; assay: Tumor margin assessment: colocalization with tumor marker iRFP, ex vivo Odyssey scan; type: in vivo, athymic mice; settings: 0.5 mg/kg i.v., 24 hr
Description: In FIG. 3B, Athymic mice bearing MDA-MB-231-iRFP tumors were injected i.v. with either ICG-p28 or ICG alone at 0.5 mg/kg. Twenty-four hours after injection, representative ex vivo images of the tumour and surrounding soft tissues for the ICG-p28 group (top row) and the ICG alone group (bottom row) were taken with an Odyssey scanner. The dotted line in the images indicates the outer edge of the soft tissue. iRFP (red: 700 nm); ICG-p28 or ICG (green: 800 nm); and colocalization (yellow-orange). In FIG. 3C, Concordance rate of the fluorescent signal in each group [the ICG-p28 group (n=10) and the ICG alone group (n=5)]; **: P<0.01.
ICG-p28 or ICG alone at 0.5 mg/kg was injected i.v. into athymic mice inoculated with MDA-MB-231-iRFP cells; 24 hr later, the xenografted tumors and surrounding tissues were removed.
MDA-MB-231-iRFP cells (1.0×10^6 cells in 0.1 ml PBS) were inoculated s.c. into the right back of mice. Once mice developed tumors (˜200 mm^3), they were injected i.v. with ICG-p28 or ICG at 0.5 mg/kg-b.w. Twenty-four hours after injection, tumors and the surrounding tissue were resected. Specimens were imaged ex vivo with an Odyssey scanner with the 700 nm channel for iRFP and the 800 nm channel for ICG-p28 or ICG alone. The area measurements were performed using ImageJ. The mean±SD values were calculated.

[3] = system: TNBC PDX tumors; assay: Detection of residual cancer cells in the tumor margin by huAlu PCR; type: in vivo, NSG mice; settings: equivalent of ICG-p28 0.5 mg/kg i.v., margins at 6 and 12 o'clock
Description: During image-guided surgery, tumors with a 2-mm safety margin and the surrounding mammary tissues at the 6 and 12 o'clock positions were removed in real time under guidance of the PDE imaging system (FIG. 6A). These samples were collected to undergo huAlu PCR as well as traditional histological analyses.
Each agent was injected i.v. (tail vein) with the corresponding compound at the equivalent of ICG-p28 0.5 mg/kg-b.w. Twenty-four hours after injection, all surgical procedures were started under sterile conditions. Following anesthesia administration, the PDE imaging system was used to monitor NIR fluorescence throughout the entire surgical procedure. […] After tumor resection, the mice were kept in their cages for an additional four weeks and monitored for tumor recurrence. Tumor recurrence was monitored by palpitation of the surgical area. Four weeks after surgery, the mice were evaluated to determine whether any of the tumors had recurred due to remnant positive margins at the resection site.
A quantitative analysis using human-specific Alu sequence (huAlu) was performed on samples collected from the margins. […] We standardized the quantitative detection of huAlu in resected tumors and surrounding margin tissues according to previously published methods. […] The mean±SD values were calculated.

[4] = system: TNBC PDX tumors; assay: Histological analysis (H&E, Ki-67) of tumor margin samples; type: in vivo, NSG mice; settings: H&E and Ki67 staining of margin samples
Description: We next performed traditional histological analyses with H&E and proliferative marker Ki67 staining on the set of tumor margin samples that were used for the Alu PCR assays.
Resected tissues were placed in containers prefilled with buffered 3.7% formalin (Anatech) and fixed for 24 hr. Formalin was replaced with 70% ethanol following fixation. Samples were paraffin-embedded, and blocks were cut into 4 μm-thick sections and mounted onto slides. H&E- and Ki-67-stained slides were analyzed by a pathologist blinded to the experimental groups and surgical resection results. The pathologist was responsible for determining a tumor's presence, margin status, and general characteristics of resected tissues.

[5] = system: TNBC PDX tumors; assay: Tumor recurrence follow-up after image-guided surgery in PDX model; type: in vivo, NSG mice
Description: Each agent was injected i.v. (tail vein) with the corresponding compound at the equivalent of ICG-p28 0.5 mg/kg-b.w. Twenty-four hours after injection, all surgical procedures were started under sterile conditions. Following anesthesia administration, the PDE imaging system was used to monitor NIR fluorescence throughout the entire surgical procedure. Tumors with a 2-mm safety margin and the surrounding mammary tissues at the 6 and 12 o'clock positions were removed in real time under guidance of the PDE imaging system. […] Following tumor excision, the skin incisions were closed using a nylon suture, and the mice were returned to their cages. After tumor resection, the mice were kept in their cages for an additional four weeks and monitored for tumor recurrence. Tumor recurrence was monitored by palpitation of the surgical area. Four weeks after surgery, the mice were evaluated to determine whether any of the tumors had recurred due to remnant positive margins at the resection site.

[6] = ICG as used in clinical practice; cited from earlier work
[7] = system: MDA-MB-231 or IOWA-IT orthotopic MFP xenograft tumors; assay: Intraoperative imaging of orthotopic xenografts, tumor recurrence follow-up
[8] = system: multiple breast cancer animal models
[9] = system: advanced solid tumors; recurrent and refractory CNS tumors; settings: human, in vivo; cited from earlier work

| Compound | tumor/normal tissue ratio of NIR signal intensity ([1]; 0.2-1.0 mg/kg i.v., 24 hr, tumor vs thigh) | TBR ([1]; ICG alone, tumor site not distinguishable) | concordance rate of 700 and 800 nm NIR signals [2] | log (huAlu DNA/mGAPDH DNA) in surrounding tissues [3] | positive margin rate [4] | tumor recurrence rate for the surgical site ([5]; four weeks after image-guided surgery) | average volume of the recurrent tumors ([5]; four weeks after surgical resection) | half-life [6] | adverse events related to administration during tumor removal ([7]; 0.5 mg/kg i.v.) | tumor recurrence at the surgical sites ([7]; 0.5 mg/kg i.v., four weeks after tumor resection) | average volume of the recurrent tumors ([7]; four weeks after tumor resection) | tumor recurrence rate overall ([8]; multiple models combined, N of 24) | average recurrent tumor volume overall ([8]; multiple subtypes of breast cancer combined) | adverse effects, toxicity or immunogenicity [9] |
| --- | --- | --- | --- | --- | --- | --- | --- | --- | --- | --- | --- | --- | --- | --- |
| CC1(C)C(/C=C/C=C/C=C/C=C2\N(CCCCS(=O)(=O)O)c3ccc4ccccc4c3C2(C)C)=[N+](CCCCS(=O)(=O)[O-])c2ccc3ccccc3c21 [ICG alone, indocyanine green] | ~1 | ~1.1 | 12% | −0.9 | 19% | 50.0% | 1,952 mm^3 | 2 to 4 min | no apparent adverse events | 25.0% | 423 mm3 | 33% | 1,188 mm^3 | – |
| p28: peptide derived from Pseudomonas aeruginosa azurin, amino acids 50-77 (SEQ ID NO: 5) | – | – | – | – | – | – | – | – | – | – | – | – | – | no significant adverse effects, toxicity or immunogenicity |

— patent US20250302306A1, “TUMOR TARGETING PROBE FOR IMAGE GUIDED SURGICAL METHODS” (priority 2021, published 2025)
